Test system: HCV genotype-1a variant with glutamine 30 changed to glutamate in the NS5A protein
Format: cell-based
Conditions: test compound titrated with BMS-790052 fixed at 200 nM; genotype 1a Q30E replicon
Source text: The NS5A synergistic inhibitory effect of test compounds can be determined using various amounts of an NS5A-targeting compound with titration of a second compound of interest. […] In one embodiment, the HCV genotype strain can be genotype 1a containing a change at amino acid 30 of the NS5A protein consisting of glutamine to glutamate. The test compound can be chosen from compounds listed above or from others present in the literature.

| Compound | Fold-Synergistic 1a (Q30E) |
| --- | --- |
| CC1(C(=O)NC(c2nc(-c3ccc(-c4ccc(-c5c[nH]c(C(NC(=O)C6(C)CCCO6)C(C)(C)C)n5)cc4)cc3)c[nH]2)C(C)(C)C)CCCO1.O=C(O)C(F)(F)F.O=C(O)C(F)(F)F (mixture of isomers) [Compound L-69] | >100 fold |
| CC(C)(C)C(NC(=O)CC1CCCO1)c1nc(-c2ccc(-c3ccc(-c4c[nH]c(C(NC(=O)CC5CCCO5)C(C)(C)C)n4)cc3)cc2)c[nH]1.O=C(O)C(F)(F)F.O=C(O)C(F)(F)F (mixture of isomers) [Compound L-70] | >100 fold |
| CC(C)(C)C(NC(=O)CC1CCOC2(CC2)C1)c1nc(-c2ccc(-c3ccc(-c4c[nH]c(C(NC(=O)CC5CCOC6(CC6)C5)C(C)(C)C)n4)cc3)cc2)c[nH]1 (mixture of isomers) [Compound L-75] | >100 fold |
| Cn1cccc1C(O)C(C)(C)C(=O)N[C@H](c1nc(-c2ccc(-c3ccc(-c4c[nH]c([C@@H](NC(=O)C(C)(C)C(O)c5cccn5C)C(C)(C)C)n4)cc3)cc2)c[nH]1)C(C)(C)C (mixture of isomers) [Compound N-129] | >100 fold |
| CC(CO)(CF)C(=O)NC(c1nc(-c2ccc(-c3ccc(-c4c[nH]c(C(NC(=O)C(C)(CO)CF)C(C)(C)C)n4)cc3)cc2)c[nH]1)C(C)(C)C (mixture of isomers) [Compound N-138] | >100 fold |
| CC(C)(C)C(NC(=O)C(C)(C)C(O)C1CC1)c1nc(-c2ccc(-c3ccc(-c4c[nH]c(C(NC(=O)C(C)(C)C(O)C5CC5)C(C)(C)C)n4)cc3)cc2)c[nH]1 (mixture of isomers) [Compound N-148] | >100 fold |
| CC(C)C(NC(=O)C(C)(C)C(O)C1CC1)c1nc(-c2ccc(-c3ccc(-c4c[nH]c(C(NC(=O)C(C)(C)C(O)C5CC5)C(C)C)n4)cc3)cc2)c[nH]1 (mixture of isomers) [Compound N-149] | >100 fold |
| CC1(C(NC(=O)C(C)(C)C(O)C2CC2)c2nc(-c3ccc(-c4ccc(-c5c[nH]c(C(NC(=O)C(C)(C)C(O)C6CC6)C6(C)CC6)n5)cc4)cc3)c[nH]2)CC1 (mixture of isomers) [Compound N-150] | >100 fold |
| CC1(C(NC(=O)C(C)(C)C(O)C2(C)CC2)c2nc(-c3ccc(-c4ccc(-c5c[nH]c(C(NC(=O)C(C)(C)C(O)C6(C)CC6)C6(C)CC6)n5)cc4)cc3)c[nH]2)CC1 (mixture of isomers) [Compound N-156] | >100 fold |
| CC1(C(NC(=O)C(C)(C)C(O)C2CC(F)(F)C2)c2nc(-c3ccc(-c4ccc(-c5c[nH]c(C(NC(=O)C(C)(C)C(O)C6CC(F)(F)C6)C6(C)CC6)n5)cc4)cc3)c[nH]2)CC1 (mixture of isomers) [Compound N-157] | >100 fold |
| COC1(C(=O)NC(c2nc(-c3ccc(-c4ccc(-c5c[nH]c(C(NC(=O)C6(OC)CCOC6)C(C)(C)C)n5)cc4)cc3)c[nH]2)C(C)(C)C)CCOC1 (mixture of isomers) [Compound N-158] | >100 fold |
| COC1(C(=O)NC(c2nc(-c3ccc(-c4ccc(-c5c[nH]c(C(NC(=O)C6(OC)CCOC6)C(C)C)n5)cc4)cc3)c[nH]2)C(C)C)CCOC1 (mixture of isomers) [Compound N-159] | >100 fold |
| CC(C)(C)C(NC(=O)C(C)(C)C1CCCCO1)c1nc(-c2ccc(-c3ccc(-c4c[nH]c(C(NC(=O)C(C)(C)C5CCCCO5)C(C)(C)C)n4)cc3)cc2)c[nH]1 (mixture of isomers) [Compound P-153] | >100 fold |
| CC(C)(C)C(NC(=O)C(C)(C)C1CCC(F)(F)CO1)c1nc(-c2ccc(-c3ccc(-c4c[nH]c(C(NC(=O)C(C)(C)C5CCC(F)(F)CO5)C(C)(C)C)n4)cc3)cc2)c[nH]1 (mixture of isomers) [Compound P-155] | >100 fold |
| CC(C)(C)C(NC(=O)C1CC(=O)c2ccccc2C1)c1nc(-c2ccc(-c3ccc(-c4c[nH]c(C(NC(=O)C5CC(=O)c6ccccc6C5)C(C)(C)C)n4)cc3)cc2)c[nH]1 (mixture of isomers) [Compound S-256] | >100 fold |
| CC(C)(C)C(NC(=O)C1CC(=O)c2ccccc21)c1nc(-c2ccc(-c3ccc(-c4c[nH]c(C(NC(=O)C5CC(=O)c6ccccc65)C(C)(C)C)n4)cc3)cc2)c[nH]1 (mixture of isomers) [Compound S-257] | >10 fold |
| Cc1ccccc1C(C(=O)NC(c1nc(-c2ccc(-c3ccc(-c4c[nH]c(C(NC(=O)C(c5ccccc5C)C(C)C)C(C)(C)C)n4)cc3)cc2)c[nH]1)C(C)(C)C)C(C)C (mixture of isomers) [Compound S-258] | >100 fold |
| COc1ccccc1C1OC(=O)CC1C(=O)NC(c1nc(-c2ccc(-c3ccc(-c4c[nH]c(C(NC(=O)C5CC(=O)OC5c5ccccc5OC)C(C)(C)C)n4)cc3)cc2)c[nH]1)C(C)(C)C (mixture of isomers) [Compound S-263] | >10 fold |
| CC(C)(C)C(NC(=O)C1CC(=O)N(c2ccccc2O)C1)c1nc(-c2ccc(-c3ccc(-c4c[nH]c(C(NC(=O)C5CC(=O)N(c6ccccc6O)C5)C(C)(C)C)n4)cc3)cc2)c[nH]1 (mixture of isomers) [Compound S-265] | >100 fold |
| CC(C)(C)OC(=O)NC1CCCC(C(=O)NC(c2nc(-c3ccc(-c4ccc(-c5c[nH]c(C(NC(=O)C6CCCC(NC(=O)OC(C)(C)C)C6)C(C)(C)C)n5)cc4)cc3)c[nH]2)C(C)(C)C)C1 (mixture of isomers) [Compound S-266] | >100 fold |
| CC(C)(C)C(NC(=O)C1CCCCC1c1ccccc1)c1nc(-c2ccc(-c3ccc(-c4c[nH]c(C(NC(=O)C5CCCCC5c5ccccc5)C(C)(C)C)n4)cc3)cc2)c[nH]1 (mixture of isomers) [Compound S-269] | >100 fold |
| CC(C)(C)C(NC(=O)C1C(c2ccccc2)C1c1ccccc1)c1nc(-c2ccc(-c3ccc(-c4c[nH]c(C(NC(=O)C5C(c6ccccc6)C5c5ccccc5)C(C)(C)C)n4)cc3)cc2)c[nH]1 (mixture of isomers) [Compound S-271] | >100 fold |
| COC(=O)NC1CCCCC1C(=O)NC(c1nc(-c2ccc(-c3ccc(-c4c[nH]c(C(NC(=O)C5CCCCC5NC(=O)OC)C(C)(C)C)n4)cc3)cc2)c[nH]1)C(C)(C)C (mixture of isomers) [Compound S-275] | >100 fold |
| CC1(C(=O)N[C@H](c2nc(-c3ccc(-c4ccc(-c5c[nH]c([C@@H](NC(=O)C6(C)CC(F)(F)CN6)C(C)(C)C)n5)cc4)cc3)c[nH]2)C(C)(C)C)CC(F)(F)CN1 (mixture of isomers) [Compound W-80] | >100 fold |
| CC1(C)CCCC(C)(C(=O)NC(c2nc(-c3ccc(-c4ccc(-c5c[nH]c(C(NC(=O)C6(C)CCCC(C)(C)O6)C(C)(C)C)n5)cc4)cc3)c[nH]2)C(C)(C)C)O1 (mixture of isomers) [Compound W-163] | >100 fold |

From patent US20160158200A1, “Combinations of Hepatitis C Virus Inhibitors” (priority 2013, published 2016)
